# Measurements as given in patent publication US20070041904A1, “Peptides whose uptake by cells is controllable” (priority 2003, published 2007).
# Key:
# [1] = system: MDA-MB-231 cells; experiment: ACPP uptake in 3D Matrigel culture, MDA-MB-231; assay type: cell-based; details: Homo sapiens, 0.1 mM GM6001, read-out: inhibition of uptake of PLGLAG-containing ACPP
# Experimental: FIG. 56: MDA-MB-231 cells in 3-D culture make enough MMPs to take up ACPP over 24 hr. The left two columns show results with e9-XPLGLAG-r9-k(Cy5) without or with 0.1 mM GM6001, a general inhibitor of MMPs. GM6001 also reduces invasiveness of the cells, explaining why the cell cluster is smaller. The right two columns show e9-Xplglag-r9-k(Cy5) as a nonhydrolyzable negative control and r9-k(Cy5) as a positive control. […] Note that these ACPPs have no macromolecular carrier, because there is no need to hinder kidney excretion and because the macromolecular carriers seem to hinder diffusion through the Matrigel and into these organoids, which lack active circulation.
# 3D tissue cultures in matrigel (FIG. 53) may also be used in the practice of this invention. Such 3D cultures are more realistic models than isolated tumor cells, and offer higher-resolution analysis than is possible in live animals. […]
# For these studies, tricine gels, fluorescence imaging, and flow cytometry protocols were used to quantify cleavage and uptake of ACPPs into the 3D cultures. Fluorescence imaging allowed detection of total fluorescence of surface and intracellular peptide, whereas flow cytometry measured fluorescence remaining inside cells after clusters have been digested into single cells and stripped of surface binding via trypsinization. […]
# [2] = system: HT1080 xenografts and mouse tissues; experiment: Biodistribution of radiolabeled ACPPs in mice with HT1080 xenografts; assay type: in vivo, nude mice
# Experimental: FIG. 50: Biodistribution of ^99mTc-labeled albumin-ACPP. Mice xenografted as in FIG. 49 were sacrificed at 6, 24, and 48 hr after injection, organs were dissected, weighed, and radioactivity counted within 2 hrs to obtain % injected dose (% ID)/g tissue as shown in the bar graph (means±s.d., n=4 per time point). The inset table gives the corresponding mean standardized uptake values (SUV) defined as animal weight×(% ID/g tissue).
# Serial scans were performed using the Biospace small animal planar scintigraphic imager. The % ID/g (% injected dose retained per gram of tissue) was measured by scintillation counting of tissues harvested post-mortem. The inventors have tested the above ACPPs and three other ^99mTc-labeled ACPPs: (70 KDa-dextran)-e9-XPLGLAG-r9-[DPK-^99mTc(CO)3], (murine serum albumin)-e9-XPLGLAG-r9-[DPK-^99mTc(CO)3], and (PAMAM generation 5 dendrimer)-e9-XPLGLAX-r9-[DPK-^99mTc(CO)3]. […] The tumor margins, however, appear relatively well-defined at earlier time points (see FIG. 48).
# Because the ratio of tumor to liver uptake was at variance with the results obtained with fluorescent and magnetic labels and because of the limited literature on the use of DPK, the inventors tested whether the DPK chelator could be responsible for the affinity for normal tissues. Thus, the inventors synthesized and tested (70 KDa dextran)-e9-XPLGLAX-r9-(DOTA-^111In).
# [3] = system: MMP-9; experiment: Fluorescence change upon enzymatic cleavage of self-quenching / FRET ACPPs; assay type: biochemical
# Description: (§1) Thus, such molecules may be administered in vivo, and are cleaved in vivo.
# ACPPs with self-quenching fluorophores [Cy5-X-e6-XPLGLAG-r9-Xk(Cy5)] or FRET pairs [Cy7-X-e6-XPLGLAG-r9-Xk(Cy5)] were synthesized. […] The inventors have found these two substrates to be poorly soluble in physiological media, even though the inventors decreased the number of glutamate residues from nine to six so that the molecules would carry more net charge.
# [4] = system: Enterokinase; experiment: Peptide cleavage by enterokinase monitored by HPLC; assay type: biochemical; details: 0.38 mM peptide stock, 1 U/μl enterokinase
# Experimental: 10 μl 0.38 mM peptide dissolved in water stock solution was added to 10 μl 1 U/μl Enterokinase (Invitrogen, EKmax) and the cleavage progress was monitored by injecting 5 μl of the reaction mixture on HPLC monitored at 440 nm. The peptide was designed to be a substrate for enterokinase, with cleavage by enterokinase expected between the K and A residues. A High Performance Liquid Chromatography (HPLC) chromatogram of the peptide EDDDDKA-aca-R9-aca-C(Fl)-CONH2 (SEQ ID NO: 3) (before cleavage of linker portion between K and A) is illustrated in FIG. 6A. […] FIG. 6B illustrates the HPLC chromatogram of the peptide of FIG. 6A after cleavage by enterokinase. The new peak was collected and determined on a mass spectrometer. The determined mass corresponded (as expected) to cleavage between K and A in the sequence of EDDDDKA-aca-R9-aca-C(Fl)-CONH2. (SEQ ID NO: 3)
# ACPP Cleavage by Enterokinase: 10 μl of a 0.38 mM peptide stock solution dissolved in water was mixed with 10 μl 1 U/μl enterokinase (Invitrogen) and incubated at 37° C. Enzymatic cleavage was monitored by injecting 5 μl of the reaction mixture on HPLC and observing either UVvis absorbance at 440 nm for fluorescein labeled or 650 nm for Cy5 labeled peptide. […] The new peaks were collected and their identities were determined by mass spectroscopy.
# [5] = system: HT-1080 tumors and mouse tissues; experiment: Standardized uptake values in tissues after peptide injection; assay type: in vivo, mice; details: 1 hr after injection
# Experimental: Xenografts in Mice. Nude mice (age, 4-6 weeks) were injected s.c. with ≈10^6 HT-1080 cells. Once the tumors had reached ≈5-7 mm in size (typically 1-2 weeks later), animals were anesthetized with 100 mg/kg ketamine and 5 mg/kg midazolam), weighed, and injected with ≈100 μl of 60 μM peptide through the tail vein. Animals were then imaged at various times by using a Nikon f/1.2 camera lens in front of a cooled charge-coupled device camera (SenSys, Photometrics, Tucson, Ariz.). For longer lasting imaging studies, animals were allowed to wake up after 2 h of anesthesia and were reanesthetized at ≈4 and 6 hr for further data collection. Plasma half-lives were determined by the decrease in fluorescence intensity of ≈5-μl blood samples withdrawn periodically into heparinized capillaries. After imaging was ended, animals were killed with halothane, and organs of interest were harvested and weighed. For frozen sectioning, tissues were added to OCT cryopreservative and frozen on dry ice and hexane. […] Cy5 fluorescence was imaged as described above. […] Two sets of standards (liver and kidney) were used to calibrate fluorescence intensity in terms of peptide concentration. From this calibration, the quantity of peptide in 30 mg of tissue for each organ was calculated. SUVs were calculated as the molality of peptide in the tissue divided by the total injected dose as mol/kg of body weight. […]
# [6] = system: tumor, kidney and liver of xenografted mice; experiment: Cyclic ACPP tested in xenografted mice; assay type: in vivo
# Experimental: as §1
# To generate cyclic peptides, the inventors synthesized cyclic[succinoyl-PLGLAG-c(11 KDa-mPEG)-e9-XPLGLAG-r9-K]-k(Cy5), which contains two cleavage sites. This cyclic ACCP was tested in xenografted mice. […] Thus, the cyclic substrate requiring two cleavages should favor the liver to an even greater extent. One of skill in the art would recognize that once peptide sequences (preferably two distinct ones) were obtained that individually are preferentially cleaved in the tumor over the liver, then the two-cut ACPPs would become advantageous for the practice of this invention.
molecule,measurement,setting,value
CNC(=O)[C@H](Cc1c[nH]c2ccccc12)NC(=O)[C@@H](CC(=O)NO)CC(C)C [GM6001],inhibition at 100 µM,[1],~50%
(murine serum albumin)-e9-XPLGLAG-r9-[DPK-^99mTc(CO)3],tumor uptake,[2]; HT1080 xenograft,1-3 % ID/g
same,liver uptake,"[2]; mouse, in vivo",12-18 % ID/g
Cy5-X-e6-XPLGLAG-r9-Xk(Cy5),increase of fluorescence intensity upon cleavage by MMP-9,[3],3.9 fold
Cy7-X-e6-XPLGLAG-r9-Xk(Cy5),increase in ratio of 650 to 770 nm emissions upon cleavage,[3]; FRET substrate,6.6 -fold
"EDDDDKA-aca-R9-aca-C(Fl)-CONH2 (EDDDDKAXRRRRRRRRRXX; aminocaproic linkers, fluorescein, C-terminal amide; Description of Artificial Sequence:peptide designed to be substrate for enterokinase; Xaa = aminohexanoic acid (aminocaproic acid); Xaa = cysteinamide modified by fluorescein (Fl))",time to almost complete cleavage by enterokinase,[4],15 min
[11-kDa PEG]-X-e9-XPLG*LAG-r9-Xk(Cy5),tumor SUV ratio cleavable vs control,[5],3.1
cyclic[succinoyl-PLGLAG-c(11 KDa-mPEG)-e9-XPLGLAG-r9-K]-k(Cy5),decrease of tumor signal vs linear peptide,[6]; compared to linear peptide with single cleavage site,2 factor
same,increase of liver signal vs linear peptide,"[6]; mouse, in vivo",~10 factor
